{
  "source": "patent US20100021945A1",
  "about": "“DETERMINATION OF CHANGES IN CONCENTRATION” (JACOBS UNIVERSITY BREMEN GGMBH, priority 2006, published 2010)",
  "key": {"arginase": {"molecular_target": "T1, arginase (Homo sapiens, UniProt P05089)", "T1 sequence (P05089 1-322)": "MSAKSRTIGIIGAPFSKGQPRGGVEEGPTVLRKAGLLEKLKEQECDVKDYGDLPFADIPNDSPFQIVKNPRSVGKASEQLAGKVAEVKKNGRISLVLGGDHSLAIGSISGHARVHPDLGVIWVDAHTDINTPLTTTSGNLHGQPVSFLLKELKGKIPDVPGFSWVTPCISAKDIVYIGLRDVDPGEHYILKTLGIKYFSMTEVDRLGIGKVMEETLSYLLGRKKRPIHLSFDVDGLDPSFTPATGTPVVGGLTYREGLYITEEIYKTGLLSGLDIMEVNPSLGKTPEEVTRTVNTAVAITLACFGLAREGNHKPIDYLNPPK", "experiment": "Arginase inhibitor screening, Hill analysis of fluorescence (DBO-amine/calixarene displacement assay)", "format": "biochemical", "details": "0.5 mM arginine, 16 μg/ml arginase, water pH 9.5, 100 μM DBO-amine, 200 μM p-sulphonato-calix[4]arene, 6 min incubation", "procedure": "What was selected as a fluorescent dye was 1-aminomethyl-2,3-diazabicyclo[2.2.2]oct-2-ene (101, DBO-amine) and p-sulphonato-calix[4]arene (a cation receptor) was used as the macrocycle, the fluorescence of the DBO-amine 101 being quenched by the calixarene.\nThe reaction was performed in the presence of 100 μM of the fluorescent dye DBO-amine and 200 μM of p-sulphonato-calix[4]arene in water at a pH of 9.5.\nFor this purpose, 0.5 mM of arginine was reacted with 16 μg/ml of arginase in different concentrations of the respective inhibitors. The solution (water, pH 9.5) also contained 100 μM of DBO-amine and 200 μM of p-sulphonato-calix[4]arene. For the Hill analysis, the intensity of fluorescence was plotted against the logarithm of the inhibitor concentration after an incubation time of 6 minutes."}, "[1]": {"experiment": "Binding constants to the macrocycle by fluorescent dye (DBO-amine) displacement", "procedure": "The binding constants were determined in water at a pH of 7 in the presence of 100 μM of DBO-amine and 200 μM of p-sulphonato-calix[4]arene."}, "[2]": {"experiment": "Binding to macrocycle / dapoxyl displacement in the lysine decarboxylase assay", "details": "for binding constant K: cucurbit[7]uril, assay in 10 mM NH4OAc buffer pH 6.0", "text": "FIG. 5 is a reaction diagram for the conversion of L-lysine (505, analyte precursor) into cadaverine (503, analyte, removes the fluorescent dye) and CO2 (not shown, most of it escapes from the solution) by L-lysine decarboxylase. Dapoxyl (501) was selected as the fluorescent dye and cucurbit[7]uril (a cation receptor) as the macrocycle, the fluorescence of the dapoxyl (501) being increased by the complexing with cucurbit[7]uril. As a result of conversion of the analyte precursor 505 into the analyte 503, there is a decrease in fluorescence during the enzymatic reaction because more and more dye 501 is removed by the analyte and the increase in the fluorescence of the dapoxyl caused by the macrocycle thus falls off. The cucurbituril acts as a cation receptor which binds the cadaverine analyte 503, which has two positive charges, better than the L-lysine analyte precursor 505, which has a single positive charge (total charge). The schematic representation of the lysine decarboxylase enzyme is again that of the arginase which is used in FIG. 1, because no crystal structure exists for lysine decarboxylase. The representation was produced with the Swiss PdbViewer v3.7 program (http://www.expasy.org/spdbv/).\nThe reaction was carried out in the presence of 2.5 μM of dapoxyl and 200 μM of cucurbit[7]uril in a 10 mM NH4OAc buffer (pH 6.0). Without any chemical change to the L-lysine, without any radio-active marking, and without any antibodies, the enzymatic reaction could thus be followed easily, directly in solution without any further incubation stages, with the help of a commercially available fluorescence spectrometer (Varian Cary Eclipse, λexc=336 nm, λobs=390 nm in the present case). It can clearly be seen in this case that the binding constants of lysine (K approx. 2000 M^−1) and cadaverine (K>1000000 M^−1) are very different. […] This is not a problem inasmuch as it is generally only the initial speed as it were of an enzymatic reaction which is determined in order to characterise the reaction. […]"}},
  "data": [
    {"smiles": "N[C@@H](CCCCB(O)O)C(=O)O", "note": "[ABH, 2(s)-amino-6-boronohexanoic acid]", "values": [
      {"measurement": "Ki", "setting": "arginase", "result": "1000 ± 100", "unit": "nM"}
    ]},
    {"smiles": "N[C@@H](CSCCB(O)O)C(=O)O", "note": "[BEC, S-(2-boronethyl)-L-cysteine]", "values": [
      {"measurement": "Ki", "setting": "arginase", "result": "4900 ± 500", "unit": "nM"}
    ]},
    {"smiles": "N=C(N)NCCC[C@H](N)C(=O)O", "note": "[arginine, L-arginine]", "values": [
      {"measurement": "binding constant K to the macrocycle", "setting": "[1]; water, pH 7, 100 μM DBO-amine, 200 μM p-sulphonato-calix[4]arene", "result": "3170 ± 130", "unit": "M⁻¹"}
    ]},
    {"smiles": "NCCCCCN", "note": "[cadaverine]", "values": [
      {"measurement": "concentration enough to remove all the fluorescent dye from the macrocycle", "setting": "[2]; 2.5 μM dapoxyl, 200 μM cucurbit[7]uril, 10 mM NH4OAc buffer pH 6.0", "result": 100, "unit": "μm"},
      {"measurement": "binding constant K", "setting": "[2]", "result": "> 1000000", "unit": "M⁻¹"}
    ]},
    {"smiles": "NCCCC[C@H](N)C(=O)O", "note": "[lysine, L-lysine]", "values": [
      {"measurement": "binding constant K", "setting": "[2]", "result": "approx. 2000 M^−1"}
    ]},
    {"smiles": "NC(N)=O", "note": "[urea]", "values": [
      {"measurement": "binding constant to the macrocycle (in words)", "setting": "[1]; uncharged molecule with a cation receptor, binding can be ignored", "result": "extremely low binding constant"}
    ]}
  ]
}
